Values of other authors in US20060052437A1, “Combination of an hmg-coa reductase inhibitor and a nitrate ester” (priority 2002, published 2006).

Tests used:
[1] = compared to aspirin
[2] = at withdrawal from the market, August 2001

SMILES	toxicity at gastric level [1]	deaths attributable to rhabdomyolysis [2] [deaths]
CC(=O)Oc1ccccc1C(=O)Oc1cccc(CO[N+](=O)[O-])c1 [NCX-4016, 2-acetyloxy-benzoic acid 3-nitroxymethyl-phenyl ester]	not toxic at gastric level	
COCc1c(C(C)C)nc(C(C)C)c(/C=C/[C@@H](O)C[C@@H](O)CC(=O)O)c1-c1ccc(F)cc1 [cerivastatin]		52
